The record followed here is PMC5537068, “Endoglucanase activity at a second site in Pyrococcus furiosus triosephosphate isomerase—Promiscuity or compensation for a metabolic handicap?” (FEBS Open Bio, 2017).

The target of experiment [1] is T1, PfuTIM (Pyrococcus furiosus, UniProt P62002).
T1 construct: gene tpiA; full-length, 6xHis tag from pQE30 (BamHI/HindIII), tag kept; E. coli M15[pREP4]; IMAC and gel filtration; monomer ~25 kDa; octamer in Tris, hexamer in phosphate
Briefly: resorufin release, absorbance at […] nm. It counts as biochemical. The settings on record: pH 6.0, 35 °C; phosphate-purified enzyme 2 μM; substrate 2.5-250 μM; promiscuous endoglucanase activity, second site.

In experiment [2] the target is T2, PfuTIM (Pyrococcus furiosus, UniProt P62002, E144G).
T2 construct: gene tpiA; full-length, 6xHis tag from pQE30 (BamHI/HindIII), tag kept; E. coli M15[pREP4]; IMAC and gel filtration; monomer ~25 kDa; octamer in Tris, hexamer in phosphate
Description: resorufin release, absorbance at […] nm. The format is biochemical. The settings on record: 37 °C, overnight incubation.

The target of experiment [3] is T1, PfuTIM. Description: intrinsic tryptophan fluorescence quenching, hyperbolic fit. It counts as binding.
Experiment [4] deals with T1, PfuTIM. Description: inhibition of cellobioside-resorufin hydrolysis, absorbance at […] nm. The note with it: enzyme 2 μM; cellobioside-resorufin 100 μM; norharman 25 μM; endoglucanase activity; headed as competitive. The format is biochemical.

T1 sequence (P62002 whole entry): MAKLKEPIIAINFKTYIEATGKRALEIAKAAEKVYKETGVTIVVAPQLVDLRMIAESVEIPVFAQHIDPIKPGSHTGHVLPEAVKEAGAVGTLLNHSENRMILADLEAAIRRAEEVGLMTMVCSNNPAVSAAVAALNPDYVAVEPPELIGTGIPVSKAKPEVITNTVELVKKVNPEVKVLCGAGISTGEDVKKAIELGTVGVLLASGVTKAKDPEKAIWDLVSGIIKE
T2 sequence (P62002 whole entry E144G): as the sequence (P62002 whole entry) above, with E144G counted along it

As for `O=c1ccc2nc3ccc(O[C@@H]4O[C@H](CO)[C@@H](O[C@@H]5O[C@H](CO)[C@@H](O)[C@H](O)[C@H]5O)[C@H](O)[C@H]4O)cc3oc-2c1` [cellobioside–resorufin], the Km at PfuTIM [1] is given as ~ 53.62 ± 4.05 μM. In addition, the “% of wild-type activity” value at PfuTIM [2] is “percentages of activity with respect to the wild‐type protein are plotted, for assays with cellobioside–resorufin”.

With `c1ccc2c(c1)[nH]c1cnccc12` [norharman], the dissociation constant (Kd) (usually the free concentration of one partner at which half of the binding sites on the other are occupied at equilibrium, for simple one-to-one binding) on PfuTIM [3] was approximately 83 µM. For the same molecule, the “complete inhibition at 25 μM” value on PfuTIM [4] is “With norharman, complete inhibition of endoglucanase/cellulase activity is seen”.
